Assay results reported in patent US20230203081A1, “LINCOSAMIDE ANTIBIOTICS AND USES THEREOF” (President and Fellows of Harvard College, priority 2020, published 2023).

What was measured:
Assay type in all cases: cell-based
P. aeruginosa ΔAmex OprM = experiment: MIC (broth microdilution or agar dilution, CLSI); settings: P. aeruginosa HAV#039; ΔAmex OprM
In short: (§1)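 Following CLSI guidelines, broth microdilution or agar dilution spans usually 128-0.06 μg/mL (2.5% DMSO final), triplicate runs, clindamycin comparator. Inocula for broth work are 5×10^5 CFU/mL in cation-adjusted Mueller-Hinton; anaerobic strains get specialized handling.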

P. aeruginosa ATCC 27853 = experiment: MIC (broth microdilution or agar dilution, CLSI); settings: P. aeruginosa HAV#009, ATCC 27853
In short: as §1

E. faecium Line R & VRE = experiment: MIC (broth microdilution or agar dilution, CLSI); settings: E. faecium HAV#319, Line R & Vanco R
In short: as §1

A. baumannii ATCC 19606 = experiment: MIC (broth microdilution or agar dilution, CLSI); settings: A. baumanii HAV#010, ATCC 19606
In short: (§2)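 Isolates other than streptococci and anaerobes, which had their own procedures, were grown overnight at 35° C on tryptic soy agar with 5% sheep blood. Suspensions were then diluted to a final inoculum of 5×10^5 CFU/mL in broth microdilution wells.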

[1] = tested on: broad panel of different clinical isolates; experiment: organism not typed
In short: as §2

Gentamicin
MIC (P. aeruginosa ΔAmex OprM): >64 µg/mL
MIC (P. aeruginosa ATCC 27853): >64 µg/mL
MIC (E. faecium Line R & VRE): 64 µg/mL
MIC (A. baumannii ATCC 19606): >64 µg/mL
MIC ([1]; A. baumannii HAV#651, Clinical): 2 µg/mL
MIC ([1]; A. baumannii HAV#652 Clinical): 16 µg/mL
MIC ([1]; A. baumannii HAV#653, Clinical): 0.5 µg/mL
MIC ([1]; A. baumannii HAV#654, Clinical): 2 µg/mL
MIC ([1]; A. baumannii HAV#655, Clinical): 2 µg/mL
MIC ([1]; A. baumannii HAV#656, Clinical): 4 µg/mL
MIC ([1]; A. baumannii HAV#657, Clinical): 4 µg/mL
MIC ([1]; A. baumannii HAV#658, Clinical): 1 µg/mL
MIC ([1]; A. baumannii HAV#659, Clinical): 32 µg/mL
MIC ([1]; A. baumannii HAV#660, Clinical): 32 µg/mL
MIC ([1]; A. baumannii HAV#661, Clinical): 1 µg/mL
MIC ([1]; A. baumannii HAV#662, Clinical): 4 µg/mL
MIC ([1]; A. baumannii HAV#663, Clinical): 0.5 µg/mL
MIC ([1]; A. baumannii HAV#664, Carbapenem R): >128 µg/mL
MIC ([1]; E. coli HAV#501, Clinical): 2 µg/mL
MIC ([1]; E. coli HAV#503, Clinical): 4 µg/mL
MIC ([1]; E. coli HAV#511, Clinical): 16 µg/mL
MIC ([1]; E. coli HAV#512, Clinical): 2 µg/mL
MIC ([1]; E. coli HAV#513, Clinical): 2 µg/mL
MIC ([1]; E. coli HAV#514, Clinical): 1 µg/mL
MIC ([1]; E. coli HAV#516, ESBL-producing): 2 µg/mL
MIC ([1]; E. faecalis HAV#251, Clinical VRE): 16 µg/mL
MIC ([1]; E. faecalis HAV#606, Clinical, VRE): >256 µg/mL
MIC ([1]; E. faecalis HAV#607, Clinical): >256 µg/mL
MIC ([1]; E. faecalis HAV#608, Clinical): >256 µg/mL
MIC ([1]; E. faecalis HAV#609, Clinical): >256 µg/mL
MIC ([1]; E. faecalis HAV#610, Clinical): >256 µg/mL
MIC ([1]; E. faecalis HAV#611, Line R & Vanco R): >128 µg/mL
MIC ([1]; E. faecalis HAV#612, Line R): >128 µg/mL
MIC ([1]; E. faecium HAV#317, Clinical): 16 µg/mL
MIC ([1]; E. faecium HAV#318, VanA, VRE): 8 µg/mL
MIC ([1]; E. faecium HAV#324, Clinical): >256 µg/mL
MIC ([1]; E. faecium HAV#327, Clinical): 8 µg/mL
MIC ([1]; E. faecium HAV#328, Clinical): >256 µg/mL
MIC ([1]; E. faecium HAV#329, Clinical): 4 µg/mL
MIC ([1]; H. influenzae HAV#376, ATCC-9007): 4 µg/mL
MIC ([1]; K. pneumoniae HAV#041, Clinical, KPC): 8 µg/mL
MIC ([1]; K. pneumoniae HAV#404, Clinical): 0.5 µg/mL
MIC ([1]; K. pneumoniae HAV#405, Clinical): 0.5 µg/mL
MIC ([1]; K. pneumoniae HAV#406, Clinical): 1 µg/mL
MIC ([1]; K. pneumoniae HAV#407, Clinical): 0.5 µg/mL
MIC ([1]; K. pneumoniae HAV#408, Clinical): 2 µg/mL
MIC ([1]; K. pneumoniae HAV#409, ESBL-producing): 0.5 µg/mL
MIC ([1]; S. aureus HAV#017, MRSA Col(Colindale, England)): 0.5 µg/mL
MIC ([1]; S. aureus HAV#051, mecA, norA, spcl, ermA, aad1, aac6′-aph2″): 2 µg/mL
MIC ([1]; S. aureus HAV#052, mecA, norA, fosB, blaZ): 1 µg/mL
MIC ([1]; S. aureus HAV#053 mecA, norA, fosB): 1 µg/mL
MIC ([1]; S. aureus HAV#054, mecA, norA, spcl, aad1, fosB, ermA, aac6′-aph2″, blaZ): 128 µg/mL
MIC ([1]; S. aureus HAV#203, Clinical (VISA)): >64 µg/mL
MIC ([1]; S. aureus HAV#216, Clinical, cfr): 8 µg/mL
MIC ([1]; S. aureus HAV#217, cfr): 4 µg/mL
MIC ([1]; S. epidermidis HAV# 275 Clinical, cfr): >64 µg/mL
MIC ([1]; S. epidermidis HAV# 276, cfr): >64 µg/mL
MIC ([1]; S. haemolyticus HAV#252, Line R & Methicillin R): >128 µg/mL
